Key:
[1] = organism: Rattus norvegicus; assay: Rat locomotor activity in reserpine pretreated rats and accumulated counts / 30 min; assay type: functional
[2] = test system: Rattus norvegicus; assay: Evaluated for DOPA accumulation in limbic region of nonpretreated rat at 25 umol / kg administered subcutaneously; assay type: functional, Limbic system
[3] = test system: Rattus norvegicus; assay: Evaluated for 5-HTP increase in limbic region of nonpretreated rat at 100 umol / kg administered subcutaneously; assay type: functional, Limbic system
[4] = test system: Rattus norvegicus; assay: Evaluated for DOPA accumulation in striatum of nonpretreated rat at 100 umol / kg administered subcutaneously (p<0.05); assay type: functional
[5] = organism: Rattus norvegicus; assay: Evaluated for rat locomotor activity in nonhabituated rats at 100 umol / kg; assay type: functional
[6] = organism: Rattus norvegicus; assay: Evaluated for rat locomotor activity in nonhabituated rats at 25 umol / kg; assay type: functional
[7] = test system: Rattus norvegicus; assay: Evaluated for DOPA accumulation in limbic region of nonpretreated rat at 100 umol / kg administered subcutaneously (p<0.05); assay type: functional, Limbic system
[8] = test system: Rattus norvegicus; assay: Evaluated for DOPA accumulation in limbic region of reserpine pretreated rat at 100 umol / kg administered intraperitoneally (p<0.05); assay type: functional, Limbic system
[9] = test system: Rattus norvegicus; assay: Evaluated for DOPA accumulation in striatum of nonpretreated rat at 25 umol / kg administered subcutaneously; assay type: functional
[10] = target: T1, Sigma non-opioid intracellular receptor 1 (Rattus norvegicus, UniProt Q9R0C9); assay: Binding effinity for sigma receptor using 2 nM of [3H]DTG as radioligand, in membranes from brain minus cerebellum; assay type: tissue-based
T1 sequence (Q9R0C9 whole entry): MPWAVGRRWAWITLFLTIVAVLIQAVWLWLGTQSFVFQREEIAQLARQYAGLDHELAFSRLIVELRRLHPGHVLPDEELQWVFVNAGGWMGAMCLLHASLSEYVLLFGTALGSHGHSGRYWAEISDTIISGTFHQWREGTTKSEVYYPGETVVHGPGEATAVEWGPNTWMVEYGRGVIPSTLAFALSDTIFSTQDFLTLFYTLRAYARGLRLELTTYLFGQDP

[11] = test system: Rattus norvegicus; assay: Evaluated for DOPA accumulation in striatum of reserpine pretreated rat at 100 umol / kg administered intraperitoneally; assay type: functional
[12] = test system: Rattus norvegicus; assay: Evaluated for 5-HTP increase in hemisphere region of nonpretreated rat at 100 umol / kg administered subcutaneously (p<0.05); assay type: functional
[13] = organism: Rattus norvegicus; assay: Evaluated for rat locomotor activity in nonpretreated habituated rats at 25 umol / kg (p<0.05); assay type: functional
[14] = organism: Rattus norvegicus; assay: Evaluated for rat locomotor activity in nonpretreated habituated rats at 100 umol / kg (p<0.05); assay type: functional
[15] = test system: Rattus norvegicus; assay: Evaluated for DOPA accumulation in striatum of nonpretreated rat at 13 umol / kg administered subcutaneously; assay type: functional
[16] = test system: Rattus norvegicus; assay: Evaluated for DOPA accumulation in striatum of reserpine pretreated rat at 52 umol / kg administered subcutaneously; assay type: functional
[17] = test system: Rattus norvegicus; assay: Evaluated for DOPA accumulation in striatum of nonpretreated rat at 52 umol / kg administered subcutaneously; assay type: functional
[18] = test system: Rattus norvegicus; assay: Evaluated for DOPA accumulation in limbic region of nonpretreated rat at 13 umol / kg administered subcutaneously; assay type: functional, Limbic system
[19] = target: T2, D(4) dopamine receptor (Homo sapiens, UniProt P21917)
T2 sequence (P21917 whole entry): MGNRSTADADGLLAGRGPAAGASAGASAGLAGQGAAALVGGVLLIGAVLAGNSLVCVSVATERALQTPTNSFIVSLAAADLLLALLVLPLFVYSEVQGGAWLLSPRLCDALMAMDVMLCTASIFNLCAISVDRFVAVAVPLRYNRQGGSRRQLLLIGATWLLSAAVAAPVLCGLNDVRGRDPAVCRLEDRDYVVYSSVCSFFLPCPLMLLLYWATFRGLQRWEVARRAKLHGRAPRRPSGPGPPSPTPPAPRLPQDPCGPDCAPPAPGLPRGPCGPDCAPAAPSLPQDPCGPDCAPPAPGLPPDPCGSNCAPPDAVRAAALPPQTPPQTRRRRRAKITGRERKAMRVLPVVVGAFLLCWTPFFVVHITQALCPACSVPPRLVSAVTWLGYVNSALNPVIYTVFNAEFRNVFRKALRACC
Description: (§1) Binding towards dopamine receptor D4 expressed in CHO-K1 cells using [3H]spiperone

[20] = target: T3, D(2) dopamine receptor (Bos taurus, UniProt P20288); assay: Evaluated for binding towards Dopamine receptor D2 using [3H]-spiperone as radioligand, in cloned mammalian receptors expressed in CHO-K1 cells; assay type: cell-based
T3 sequence (P20288 whole entry): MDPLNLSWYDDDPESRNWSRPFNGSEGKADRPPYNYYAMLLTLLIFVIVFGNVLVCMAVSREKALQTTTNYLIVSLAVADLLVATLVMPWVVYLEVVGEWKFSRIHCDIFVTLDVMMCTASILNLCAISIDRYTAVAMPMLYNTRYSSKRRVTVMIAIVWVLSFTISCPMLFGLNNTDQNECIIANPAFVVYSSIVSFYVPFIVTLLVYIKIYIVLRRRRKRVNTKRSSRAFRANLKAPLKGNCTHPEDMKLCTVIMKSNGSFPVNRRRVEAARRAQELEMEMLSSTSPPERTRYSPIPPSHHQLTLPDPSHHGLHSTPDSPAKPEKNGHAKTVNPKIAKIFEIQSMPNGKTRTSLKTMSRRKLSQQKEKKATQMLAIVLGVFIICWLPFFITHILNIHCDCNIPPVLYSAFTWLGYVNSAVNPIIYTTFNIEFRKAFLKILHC

[21] = target: T4, D(2) dopamine receptor (Rattus norvegicus, UniProt P61169); assay: Evaluated for binding towards Dopamine receptor D2 using [3H]N-0437 as radioligand from rat striatal membrane
T4 sequence (P61169 whole entry): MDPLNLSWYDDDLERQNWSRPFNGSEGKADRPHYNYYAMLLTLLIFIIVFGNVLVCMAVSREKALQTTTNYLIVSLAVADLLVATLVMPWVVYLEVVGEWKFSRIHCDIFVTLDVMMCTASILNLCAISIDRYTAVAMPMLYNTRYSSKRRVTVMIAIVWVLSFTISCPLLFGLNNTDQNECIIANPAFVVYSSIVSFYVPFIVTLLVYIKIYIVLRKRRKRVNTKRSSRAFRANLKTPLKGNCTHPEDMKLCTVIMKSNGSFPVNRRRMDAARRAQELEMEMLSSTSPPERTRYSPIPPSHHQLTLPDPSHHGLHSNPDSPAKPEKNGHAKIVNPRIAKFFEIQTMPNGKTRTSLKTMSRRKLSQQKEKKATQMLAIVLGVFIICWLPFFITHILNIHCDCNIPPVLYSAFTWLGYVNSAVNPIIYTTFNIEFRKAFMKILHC

[22] = organism: Rattus norvegicus; assay: Evaluated for rat locomotor activity in nonpretreated habituated rats at 25 umol / kg; assay type: functional
[23] = test system: Rattus norvegicus; assay: Evaluated for DOPA accumulation in limbic region of reserpine pretreated rat at 52 umol / kg administered subcutaneously; assay type: functional, Limbic system
[24] = test system: Rattus norvegicus; assay: Evaluated in rat striatum for the effect on dopamine release and metabolism in brain dialysis model after administration of 50 umol / kg subcutaneously; assay type: functional; design: unit not given beside the values
[25] = test system: Rattus norvegicus; assay: Evaluated in rat striatum for the effect on DOPAC release and metabolism in brain dialysis model after administration of 50 umol / kg subcutaneously; assay type: functional; design: unit not given beside the values
[26] = organism: Rattus norvegicus; assay: Rat locomotor activity in reserpine pretreated rats and accumulated counts / 30 min is calculated; assay type: functional
[27] = test system: Rattus norvegicus; assay: Evaluated in rat accumbens for the effect on dopamine release and metabolism in brain dialysis model after administration of 50 umol / kg subcutaneously; assay type: functional
[28] = target: T4, D(2) dopamine receptor; assay: Binding towards Dopamine receptor D2 using [3H]spiperone from rat striatal membrane
[29] = target: D(3) dopamine receptor (Homo sapiens, UniProt P35462)
Sequence of D(3) dopamine receptor (P35462 whole entry): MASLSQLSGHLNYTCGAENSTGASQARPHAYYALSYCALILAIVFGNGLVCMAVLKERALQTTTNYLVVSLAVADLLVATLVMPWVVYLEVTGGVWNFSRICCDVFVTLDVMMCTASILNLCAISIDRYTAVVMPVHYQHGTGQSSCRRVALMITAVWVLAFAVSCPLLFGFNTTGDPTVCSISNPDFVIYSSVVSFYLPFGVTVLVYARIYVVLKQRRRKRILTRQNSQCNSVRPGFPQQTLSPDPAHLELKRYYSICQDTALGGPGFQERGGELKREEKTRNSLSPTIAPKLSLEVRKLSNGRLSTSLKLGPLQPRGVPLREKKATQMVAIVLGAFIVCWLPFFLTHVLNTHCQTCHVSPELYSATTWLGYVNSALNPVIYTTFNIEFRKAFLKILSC
Description: Binding towards Dopamine receptor D3 expressed in CHO-K1 cells using [3H]spiperone

[30] = test system: Rattus norvegicus; assay: Evaluated in rat accumbens for the effect onDOPAC release and metabolism in brain dialysis model after administration of 50 umol / kg subcutaneously; assay type: functional
[31] = organism: Rattus norvegicus; assay: Evaluated for rat locomotor activity in nonpretreated habituated rats at 100 umol / kg; assay type: functional; design: unit not given beside the values
[32] = target: T3, D(2) dopamine receptor; assay: Binding towards Dopamine receptor D2 expressed in CHO-K1 cells using [3H]U-86170; assay type: cell-based
[33] = test system: Rattus norvegicus; assay: Evaluated for rat locomotor activity in nonhabituated rats at 13 umol / kg administered subcutaneously; assay type: functional
[34] = test system: Rattus norvegicus; assay: Evaluated for rat locomotor activity in nonhabituated rats at 52 umol / kg administered subcutaneously; assay type: functional
[35] = test system: Rattus norvegicus; assay: Evaluated for DOPA accumulation in limbic region of nonpretreated rat at 52 umol / kg administered subcutaneously; assay type: functional, Limbic system
[36] = test system: Rattus norvegicus; assay: Evaluated for rat locomotor activity in nonhabituated rats at 13 umol / kg administered intraperitoneally; assay type: functional
[37] = test system: Rattus norvegicus; assay: Evaluated in rat accumbens for the effect on DOPAC release and metabolism in brain dialysis model after administration of 50 umol / kg subcutaneously; assay type: functional
[38] = test system: Rattus norvegicus; assay: Evaluated for DOPA accumulation in limbic region of reserpine pretreated rat at 100 umol / kg administered intraperitoneally; assay type: functional, Limbic system
[39] = test system: Rattus norvegicus; assay: Evaluated for DOPA accumulation in striatum of nonpretreated rat at 100 umol / kg administered subcutaneously; assay type: functional
[40] = test system: Rattus norvegicus; assay: Evaluated for 5-HTP increase in hemisphere region of nonpretreated rat at 100 umol / kg administered subcutaneously; assay type: functional
[41] = Half life was estimated from the elimination phase of the blood concentration curves after peroral administration; assay type: ADME, organism-based; conditions: po
[42] = test system: Rattus norvegicus; assay: Evaluated for 5-HTP increase in limbic region of nonpretreated rat at 52 umol / kg administered subcutaneously; assay type: functional, Limbic system
[43] = test system: Rattus norvegicus; assay: Evaluated for 5-HTP increase in hemisphere region of nonpretreated rat at 200 umol / kg administered subcutaneously; assay type: functional
[44] = test system: Rattus norvegicus; assay: Evaluated for 5-HTP increase in limbic region of nonpretreated rat at 200 umol / kg administered subcutaneously; assay type: functional, Limbic system
[45] = test system: Rattus norvegicus; assay: Evaluated for DOPA accumulation in striatum of nonpretreated rat at 200 umol / kg administered subcutaneously; assay type: functional
[46] = test system: Rattus norvegicus; assay: Evaluated for rat locomotor activity in nonhabituated rats at 200 umol / kg administered subcutaneously; assay type: functional
[47] = target: T1, Sigma non-opioid intracellular receptor 1; assay: Binding affinity for sigma receptor using 2 nM of [3H]DTG as radioligand, in membranes from brain minus cerebellum; assay type: tissue-based
[48] = test system: Rattus norvegicus; assay: Evaluated for DOPA accumulation in limbic region of nonpretreated rat at 200 umol / kg administered subcutaneously; assay type: functional, Limbic system
[49] = test system: Rattus norvegicus; assay: Evaluated for rat locomotor activity in nonhabituated rats at 213 umol / kg administered subcutaneously; assay type: functional
[50] = test system: Rattus norvegicus; assay: Evaluated for DOPA accumulation in limbic region of nonpretreated rat at 100 umol / kg administered subcutaneously; assay type: functional, Limbic system
[51] = target: T2, D(4) dopamine receptor; conditions: cho-k1
Description: as §1

[52] = test system: Rattus norvegicus; assay: Evaluated for DOPA accumulation in limbic region of reserpine pretreated rat at 27 umol / kg administered subcutaneously; assay type: functional, Limbic system
[53] = test system: Rattus norvegicus; assay: Evaluated for 5-HTP increase in hemisphere region of nonpretreated rat at 27 umol / kg administered subcutaneously; assay type: functional
[54] = test system: Rattus norvegicus; assay: Evaluated for 5-HTP increase in limbic region of nonpretreated rat at 27 umol / kg administered subcutaneously; assay type: functional, Limbic system

CCCN1CCC[C@H](c2cccc(OS(=O)(=O)C(F)(F)F)c2)C1
Activity [1]: 2
Activity [2]: 93
Activity [3]: 86
Activity [4]: 80
Activity [5]: 95
Activity [6]: 115
Activity [7]: 82
Activity [8]: 75
Activity [9]: 92
IC50 [10]: 0.006 µM
Activity [11]: 80
Activity [12]: 86
Activity [13]: 30
Activity [14]: 34

CCCN[C@@H]1CCc2c(OC)cccc2[C@@H]1C
Activity [15]: 330
Activity [16]: 102
Activity [17]: 400
Activity [18]: 223
Ki [19]: 0.117 µM
Ki [20]: 0.158 µM
Ki [21]: 0.3 µM
Activity [22]: 300
Activity [23]: 108
Activity [24]: 285
Activity [25]: 315
Activity [26]: 11
Activity [27]: 313
Ki [28]: 0.53 µM
Ki [29]: 0.026 µM
Activity [30]: 235
Activity [31]: 350
Ki [32]: 0.145 µM
Activity [33]: 155
Activity [34]: 159
Activity [35]: 253

CCCN(CCC)[C@@H]1CCc2c(OC)cccc2[C@@H]1C
Activity [15]: 270
Activity [17]: 370
Activity [18]: 180
Ki [19]: 0.048 µM
Activity [36]: 140
Ki [20]: 0.018 µM
Ki [21]: 0.1 µM
Activity [22]: 220
Activity [37]: 207
Activity [24]: 209
Activity [25]: 307
Activity [5]: 70
Activity [26]: 29
Activity [27]: 231
Ki [28]: 0.07 µM
Ki [29]: 0.004 µM
Activity [31]: 220
Ki [32]: 0.013 µM
Activity [11]: 109
Activity [35]: 245
Activity [38]: 116

CCCN1CCC[C@@H](c2cccc(OS(=O)(=O)C(F)(F)F)c2)C1
Activity [2]: 139
Activity [3]: 102
Activity [37]: 152
Activity [24]: 208
Activity [39]: 264
Activity [25]: 162
Activity [5]: 129
Activity [6]: 128
Activity [40]: 108
Activity [26]: 25
Activity [27]: 153
Activity [9]: 221
IC50 [10]: 0.032 µM
half-life [41]: 3.5 h
Activity [11]: 89
Activity [38]: 94

CCCN1CCCC(c2cccc(C#N)c2)C1 (racemic)
Activity [17]: 281
Activity [40]: 103
Activity [42]: 99
Activity [35]: 198

CCCN1CCCC(c2cccc(C#N)c2)C1 (single isomer, unassigned; (+))
Activity [43]: 94
Activity [44]: 71
Activity [2]: 109
Ki [19]: > 0.933 µM
Activity [45]: 78
Ki [20]: > 2 µM
Ki [21]: 4.9 µM
Activity [23]: 93
Activity [46]: 118
IC50 [47]: 0.52 µM
Activity [6]: 104
Activity [26]: 6
Activity [9]: 84
Activity [48]: 94
Ki [28]: 12.6 µM
Ki [29]: > 1.42 µM
Activity [31]: 559
Ki [32]: 1.72 µM
Activity [11]: 81

CCCN1CCCC(c2cccc(O)c2)C1 (single isomer, unassigned; (+))
Activity [2]: 37
Activity [49]: 230
Ki [19]: > 1 µM
Ki [20]: 0.776 µM
Activity [24]: 28
Activity [25]: 42
Activity [6]: 75
Activity [26]: 78
Activity [9]: 43
Ki [32]: 0.032 µM
Activity [38]: 18

CCCN1CCCC(c2cccc(C#N)c2)C1 (single isomer, unassigned; (-))
Activity [2]: 204
Activity [3]: 148
Ki [20]: 0.889 µM
Ki [21]: 0.396 µM
Activity [22]: 418
Activity [23]: 136
Activity [24]: 295
Activity [39]: 268
Activity [25]: 299
Activity [26]: 12
Activity [27]: 294
Activity [9]: 285
IC50 [10]: 2.2 µM
Ki [28]: 1.14 µM
Ki [29]: 0.249 µM
Activity [31]: 719
Ki [32]: 0.119 µM
Activity [50]: 219
Activity [11]: 105
Ki [51]: > 0.933 µM

CCCN1CCCC(c2cccc(O)c2)C1 (single isomer, unassigned; (-))
Activity [52]: 30
Activity [2]: 91
Activity [49]: 40
Ki [19]: 0.13 µM
Ki [20]: 0.137 µM
Activity [37]: 115
Activity [24]: 700
Activity [25]: 70
Activity [6]: 74
Activity [26]: 12
Activity [27]: 98
Activity [9]: 147
Activity [53]: 87
Activity [31]: 208
Activity [54]: 89
Ki [32]: 0.0085 µM
